Source: patent EP0378285A1, “Substituted alkenes, processes for their preparation and their use as pesticides” (priority 1989, dated 1990)

What was measured:
Format in all cases: in vivo
[1] = system: corn rootworm (Diabrotica undecimpunctata); experiment: Use Example D: activity against eggs/larvae of the corn rootworm; conditions: Diabrotica undecimpunctata, 168 h; aqueous emulsion 0.1%, 0.2 ml pipetted into soil; 7 days at 25 C; death of eggs or newly hatched larvae
Experimental: Activity against eggs/larvae of the corn rootworm (Diabrotica undecimpunctata)
The compounds of the invention were made up as aqueous emulsions at a concentration of 0.1%. Into the soil in polystyrene petri dishes, containing maize seedlings (1 seedling/dish) and ca. 50 eggs of the corn rootworm (Diabrotica undecimpunctata) were pipetted 0.2 ml of these preparations. The closed dishes were left at 25 C under extended daylight conditions for 7 days. The criterion for judging the activity was the death of eggs or newly hatched larvae at the end of the test.

[2] = system: brown rice-hoppers (Niliparvata lugens Stal); experiment: Use Example B: activity in prophylactic treatment of leaves against brown rice-hoppers; conditions: 48 h, read-out: activity
Excerpt: Activity in prophylactic treatment of leaves against brown rice-hoppers (Niliparvata lugens Stal)
Rice seedlings (Oryzae sativa L.) in the two leaf stage (about 10 per polystyrene pot of size 6.5 x 6.5 cm) were either untreated or […] until dripping wet, with an aqueous preparation containing 0.1 % of active material. After drying the sprayed leaves, a transparent cylinder was placed over each pot and through an opening, about 30 brown rice-hoppers (Niliparvata lugens) in the 4-5 stage, anaesthetised with carbon dioxide, were introduced into each pot. After closing the opening with a fine mesh screen, the pots were kept for 2 days at 28° C and 16 hours/day of light in the glasshouse, the amount of dead hoppers was determined. The percentage mortality was then estimated and the activity calculated using Abbott's method in comparison with the untreated controls.

Aphis fabae = experiment: Activity in prophylactic treatment of leaf discs against Aphis fabae; conditions: Aphis fabae, foliar, 48 h; 0.1% aqueous preparation; field bean leaf discs infested with wingless stages; 2 days at 25 C; percentage mortality, Abbott's method
Experimental: From the primary leaf of field beans (Phaseolus vulgaris nanus Aschers.), 24 mm diameter discs were cut. Some of these were treated with a 0.1% aqueous preparations of compounds of the invention and these along side untreated discs were placed on filter papers with the underside of the leaves turned upwards. After drying the test pieces, they were each infested with wingless stages of Aphis fabae (approx 100 per leaf piece). The experiment was replicated 3 times. The leaves were kept on wet filter papers for 2 days at 25 C and 16 hours light per day. The percentage mortality was then estimated and the activity calculated using Abbott's method in comparison with the untreated controls.

[3] = system: cotton bollworm (Heliothis viriscens); experiment: whole plant or invertebrate; conditions: 48 h, read-out: activity
Experimental: Activity against larvae (L1) of the cotton bollworm (Heliothis viriscens)
Compounds of the invention were made up as aqueous preparations at a concentration of 0.1 %. Into these, feed material was dipped for 2 seconds. After drying the feed material was put into into polystyrene petri dishes. After an hour, 10 L1 of the cotton bollworm (Heliothis viriscens) were counted into the dishes. The closed dishes were left for up to 7 days at 25 °C under extended daylight conditions. The % mortality of the larvae after two days indicated the level of activity.

[4] = system: cotton bollworm (Heliothis viriscens); experiment: Use Example H: ovicidal activity against eggs of the cotton bollworm; conditions: aqueous preparation 0.1 %; one day old eggs dipped; four days; % inhibition of hatching of the eggs
Excerpt: Ovicidal activity against eggs of the cotton bollworm (Heliothis viriscens)
The compounds of the invention were made up as aqueous preparations at a concentration of 0.1 %. One day old eggs that had been laid on filter paper by fertilised female moths were dipped in the preparations until they were completely wet and then placed in closed petri dishes under extended daylight conditions for four days. The % inhibition of hatching of the eggs in comparison with untreated eggs indicates the level of activity.

[5] = system: two spotted mite (Tetranychus urticae Koch); experiment: Use Example C: activity in the prophylactic treatment of feed against the two spotted mite; conditions: foliar, 0.1 % aqueous preparation, field bean leaf discs, adults and eggs counted after 3 days at 25 C, larvae after a further 7 days, Abbott's method
Experimental: Activity in the prophylactic treatment of feed against the two spotted mite (Tetranychus urticae Koch)
From the primary leaf of field beans (Phaseolus vulgaris nanus Aschers.) 14 mm diameter discs were cut. Some of these were treated with a 0.1 % aqueous preparations of compounds of the invention and these along side untreated discs were placed on filter papers with the underside of the leaves turned upwards. After drying the test pieces, they were each infested with six adult female Tetranychus urticae and maintained for 3 days at 25 C and 16 hours light per day. The experiment was replicated 4 times. Dead and alive adults were then counted and removed. Similarly the number of eggs laid were counted. After a further 7 days, the number of living larvae were counted, the activity calculated using Abbott's method in comparison with the untreated controls.

SMILES: C=C(C)C(C)(C)COCc1ccc(F)c(Nc2ccccc2)c1 [Example 20, 4-(3-anilino-4-fluorobenzyloxy)-2,3,3-trimethyl-1-butene]
- mortality at 0.1 % [1]: 80 to 100%
- mortality at 0.1 % [2]: ≥ 80%
- mortality at 0.1 % (Aphis fabae): ≥ 80%
- mortality at 0.1 % [3]: 80 to 100%
- activity [4]: 80 - 100%
- mortality at 0.1 % [5]: 80 to 100%
